Several values for one entry are separate records, joined by “and”; a condition that tells them apart may be missing. Identical values can stand only once.
Legend:
SARS = assay type: cell-based; conditions: 50 mg·mL; FIG. 4
Hep G2.2.15 cells = assay: % Cell Viability in Anti-HBSAg Assay (Procedure A); assay type: cell-based, human; conditions: 50 μg/ml
Description: (§1) The HBV-producing human hepatoblastoma cell line, Hep G2.2.15 was maintained in DMEM supplemented with 10% fetal bovine serum (FBS), 2 mM glutamine, 100 units/ml penicillin, 100 μg/ml streptomycin and 380 μg/ml gentamicin sulfate (G418) at 37° C. under 5% CO2 in air. The Hep G2 parental cells were grown under identical conditions in MEM with Earle's salts without G418.
(§2) Hep G2.2.15 cells (190 μl) were seeded onto microtiter plates at a concentration of 20×10^4 cells/ml. The cells incubated overnight in medium without G418 after which the compound compositions (10 μl) were added. Five 2-fold serial dilutions of extracts or fractions were tested starting at 200 μg/ml final culture concentration. PBS and 3TC (lamivudine) were included as the negative and positive controls, respectively. The treated cells were incubated at 37° C. for 4 days, after which the hepatitis B surface antigen (HBsAg) production in culture supernatants was assayed. The HBsAg released into the culture medium in the presence or absence of test samples was assayed using the BIO-RAD Genetic Systems HBsAg EIA 3.0 kit (Bio-Rad, Redmond, Wash.). This enzyme immunoassay is based on the capture of HBsAg on monoclonal antibody-coated plates. Four- and twelve-fold dilutions of all culture supernatants collected were assayed in triplicate wells of the EIA plate. The percentage inhibition of HBsAg secretion in the presence of the plant samples was calculated against the negative control (PBS).

influenza = influenza virus entry assay; assay type: cell-based; design: dose or concentration left out as unconfirmed; conditions: FIG. 4
Ebola = assay type: cell-based; conditions: 50 mg·mL; FIG. 4
HBeAg = assay: Anti-HBSAg Assay (Procedure B), HBeAg; assay type: cell-based, hepatitis B virus; design: HBeAg Ave: unit not given here
Hep G2 2.2.15 cells = assay: Cytotoxicity Assay (MTT); assay type: cell-based, human
Description: Hep G2 2.2.15 cells (120 μl) were seeded onto 96-well plates at a concentration of 2×10^5 cells/mL. After incubation for 72 h, serial dilutions of the test samples were added to monolayer Hep G2 2.2.15 cells, and culture at 37° C. in a humidified atmosphere of 5% CO2 in air for an additional 9 days, and the medium with sample was changed every 3 days, 10 μL 10% aqueous DMSO was used as control group. After incubation, the supernatant was taken out and 90 μL of DMEM and 10 μL of the 5 mg/ml MTT (3-[4,5-dimethylthiazol-2-yl]-2,5-diphenyltetrazolium bromide) solution was then added to each well, and the plates were incubated for an additional 3 hours. The MTT was removed, and to each well was added 100 μl of DMSO. The plates were agitated on an orbital shaker at 50 rpm at room temperature for 5 min. The optical density of each sample was measured at 490 nm. The percent absorbance of the samples treated with the test material was compared to the untreated sample to calculate the percentage of control. Data are expressed as relative viability, with cytotoxicity indicated by <100% relative viability.

VSVG/HIV pseudovirions = assay: VSVG/HIV pseudoviral entry into HUH7 cells; assay type: cell-based, vesicular stomtatis virus; conditions: 100 μg/mL, FIG. 3
HBV DNA = assay: Anti-HBV DNA Assay; assay type: cell-based, hepatitis B virus; conditions: for HBV DNA copies/ml: replicates, listed as HP-S2
HIV = assay: anti-HIV HOG.R5 assay; assay type: cell-based; conditions: 20 mcg/ml
Marburg = assay type: cell-based; design: dose or concentration left out as unconfirmed; conditions: FIG. 4
[1] = test system: hepatitis B surface antigen (HBsAg) production; assay: Anti-HBSAg Assay (Procedure A); assay type: cell-based, hepatitis B virus; conditions: 50 μg/ml
Description: as §1, §2

HCV JFH1 = HCV JFH1 infectivity assay (JFH1 Foci Reduction Assay); assay type: cell-based, hepatitis C virus; conditions: virus preincubated with compound; Huh 7 cells; 48 hr post infection; RD8, RD16, RD17, RD18 as glucosidase hydrolysis products
HCV/HIV pseudovirions = assay: microbe, parasite or virus in culture; assay type: cell-based, hepatitis C virus; conditions: for inhibition of HCV/HIV entry: 100 μg/mL

## COC(=O)C1=COC(O)C2C1C(O)C(O)C2(C)O (mixture of isomers) [lamiridosin]
SARS
  activity against SARS virus entry: inactive
Hep G2.2.15 cells
  % Cell Viability: 100%
influenza
  activity against influenza virus entry: inactive
Ebola
  activity against Ebola virus entry: inactive
HBeAg; 9.375 μg/mL
  HBeAg Ave: 1.327
  HBeAg Inhibition %: 2.7%
  HBeAg OD1: 1.455
  HBeAg OD2: 1.416
  HBeAg OD3: 1.109
HBeAg; 18.75 μg/mL
  HBeAg Ave: 1.244
  HBeAg Inhibition %: 8.5%
  HBeAg OD1: 1.151
  HBeAg OD2: 1.171
  HBeAg OD3: 1.410
HBeAg; 37.5 μg/mL
  HBeAg Ave: 1.195
  HBeAg Inhibition %: 12.1%
  HBeAg OD1: 1.073
  HBeAg OD2: 1.275
  HBeAg OD3: 1.238
Hep G2 2.2.15 cells; 75 μg/mL
  Toxicity to Hep G2 2.2.15 cells (Table 2): Toxic
Hep G2 2.2.15 cells; 150 μg/mL
  Toxicity to Hep G2 2.2.15 cells (Table 2): Toxic
Hep G2 2.2.15 cells; at doses greater than 50 μg/ml
  cytotoxicity to the Hep G2 2.2.15 cells: non-cytotoxic
VSVG/HIV pseudovirions
  VSVG/HIV pseudoviral entry blocking: does not block
HBV DNA; 9.37 μg/ml
  HBV DNA Average: 9.81 × 10^5 copies/ml
  HBV DNA Inhibit: 0.00%
  HBV DNA copies/ml: 1.12E+6 copies/ml and 1.01E+06 copies/ml and 1.22E+06 copies/ml
HBV DNA; 18.75 μg/ml
  HBV DNA Average: 8.90 × 10^5 copies/ml
  HBV DNA Inhibit: 23.90%
  HBV DNA copies/ml: 8.22E+05 copies/ml and 8.73E+05 copies/ml and 9.76E+05 copies/ml
HBV DNA; 37.5 μg/ml
  HBV DNA Average: 6.49 × 10^5 copies/ml
  HBV DNA Inhibit: 44.5%
  HBV DNA copies/ml: 5.06E+05 copies/ml and 8.57E+05 copies/ml and 5.85E+05 copies/ml
HIV
  activity against HIV (HOG.R5 assay): inactive
Marburg
  activity against Marburg virus entry: inactive
[1]
  % Control HBSAg: 100%
  % Inhibition: 0%
[1]; Table 1
  anti-HBSAg assay activity (in words): inactive
HCV JFH1
  Estimated IC50 (inhibition of HCV JFH1 infectivity): 20 µg/mL
HCV/HIV pseudovirions; 1 ug/mL
  Exp2 (% Inhib): 56.6%
  Trial 1 (% Inhib): 70.1%
HCV/HIV pseudovirions; 5 ug/mL
  Exp2 (% Inhib): 68.4%
  Trial 1 (% Inhib): 81.2%
HCV/HIV pseudovirions; 10 ug/mL
  Exp2 (% Inhib): 81.8%
  Trial 1 (% Inhib): 86.8%
HCV/HIV pseudovirions; 50 ug/mL
  Exp2 (% Inhib): 96.7%
  Trial 1 (% Inhib): 96.1%
HCV/HIV pseudovirions; 100 ug/mL
  Exp2 (% Inhib): 99.5%
  Trial 1 (% Inhib): 99.5%
HCV/HIV pseudovirions; FIG. 1
  inhibition of HCV/HIV entry: approximately 80%
  anti-hepatitis C virus activity (in words): did block HCV viral entry
HCV/HIV pseudovirions; FIG. 1, listed as Lamiridosin
  inhibition of HCV/HIV entry: ca. 85%
HCV/HIV pseudovirions; FIG. 2
  IC50 in the anti-HCV assay (HCV viral entry): 0.6 µg/mL
HCV/HIV pseudovirions; FIG. 2, read-out: IC50 in the anti-HCV assay (HCV viral entry)
  IC50: 2310 nM
HCV/HIV pseudovirions; FIG. 2 fit
  Imax in the anti-HCV assay: 93.9±3.5%

Source: patent US20080319042A1, “Compositions and methods for treatment of liver disease” (priority 2007, published 2008)
